Reference: US5364876A, “Omega-[2-(alkyl)phenyl]-2-aminoalkanoic acids as antagonists of excitatory amino acid receptors” (Guilford Pharmaceuticals Inc., priority 1992, dated 1994)
“And” between values parts separate entries of the source, which are not always exact repeats. Equal values may be shown once.

Assays:
NMDA receptors = settings: U.S. Pat. No. 4,657,899; cited from earlier work
kainate receptors = settings: U.S. Pat. No. 4,657,899, Table I; cited from earlier work
AMPA receptors = test: [3H]AMPA displacement binding; settings: for Ki: [3H]AMPA displacement, read-out: Receptor Potency (Ki), AMPA
[1] = biological target: T1, strychnine insensitive glycine site (Rattus norvegicus, UniProt P35439); test: Strychnine insensitive glycine binding; settings: read-out: Receptor Potency (Ki), Glycine
T1 construct: from tissue

GLU (NMDA receptors) = test: GLU receptor ligand binding (NMDA receptors); settings: read-out: Receptor Potency (Ki), GLU
[2] = biological target: KA receptors (kainic acid-induced currents); test: Inhibition of KA-induced currents in rat brain mRNA-injected Xenopus oocytes; format: cell-based; settings: Xenopus oocytes injected with rat brain mRNA; IC50 converted to Ki by Cheng-Prusoff equation
Protocol: (§1) Defolliculated oocytes obtained from Xenopus laevis females were injected with 30-75 ng of poly (A+) mRNA obtained from 21-day old male Sprague-Dawley rats. Oocytes were placed individually in […] of antibiotic-supplemented modified Barthes solution (MBS, containing in mM: NaCl, 88; KCl, 1.0; NaHCO3, 2.4; HEPES, 10;MgSO4, 0.82; Ca(NO3)2, 0.33) in 96-well sterile plates and cultured for 48-120 hours prior to experimentation. Oocytes were inspected every 24 hours at which time the bathing solution is replaced with fresh MBS.
(§2) For electrophysiological studies, oocytes were positioned in a small recording chamber ([…]) and superfused with antibiotic free MBS supplemented with CaCl2 (final concentration=1.4 mM). Oocytes are impaled with a single glass microelectrode, voltage clamped at -60 to -70 mV, and perfused by gravity feed at a rate of […] at room temperature. […] Antagonists are coperfused with agonists. MBS used in NMDA assays were prepared from "glycine-free", deionized water
(§3) Potencies to inhibit kainic acid-, AMPA- and […] currents are determined from concentration-response curves. IC50 values are converted to Ki values for comparison purposes using the Cheng-Prusoff equation.

KA receptor = KA receptor ligand binding; design: species or system rat
[3] = biological target: AMPA receptors (AMPA-induced currents); test: Inhibition of AMPA-induced currents in rat brain mRNA-injected Xenopus oocytes; format: cell-based; settings: Xenopus oocytes injected with rat brain mRNA; IC50 converted to Ki by Cheng-Prusoff equation
Protocol: as §1, §2, §3

[4] = biological target: CNQX labeled non-NMDA receptors; test: CNQX-labeled non-NMDA receptor binding; settings: read-out: Receptor Potency (Ki), CNQX

| Ki [1] [µM] | Ki (GLU (NMDA receptors)) [µM] | Ki, inhibition of KA-induced currents [2] | SMILES | NMDA antagonist activity (NMDA receptors) | binding affinity for kainate receptors (kainate receptors) | also measured |
| --- | --- | --- | --- | --- | --- | --- |
| 41 | > 300 | > 50 µM | NC(Cc1cc(F)ccc1CCC(=O)O)C(=O)O (stereo not drawn) [Example 5a] | – | – | Ki (AMPA receptors): 168 µM; Receptor Potency (Ki), KA (KA receptor): 475 µM |
| 9 | > 300 | 32 µM | NC(Cc1cc(Cl)ccc1CCC(=O)O)C(=O)O (stereo not drawn) [Example 5b] | – | – | selectivity for AMPA versus NMDA receptors (AMPA receptors; Ki GLU >300 μM versus Ki AMPA 51 μM): at least six-fold selective; Ki (AMPA receptors): 51 µM; Ki [3]: 96 µM; Receptor Potency (Ki), KA (KA receptor): 506 µM |
| 211 | > 1000 | 84 µM | Cc1cc(C)c(CCC(=O)O)c(C[C@H](N)C(=O)O)c1 [Example 5c, 3,5-Dimethyl-2-(2'-carboxyethyl)phenylalanine] | – | – | – |

The remaining lines, values behind:

| SMILES | Ki [1] [µM] | Ki (GLU (NMDA receptors)) [µM] | Ki, inhibition of KA-induced currents [2] | NMDA antagonist activity (NMDA receptors) | binding affinity for kainate receptors (kainate receptors) | also measured |
| --- | --- | --- | --- | --- | --- | --- |
| NC(Cc1ccccc1CCP(=O)(O)O)C(=O)O (stereo not drawn) [2-amino-3-[2-(2-phosphonoethyl)phenyl]propanoic acid] | – | – | – | antagonists of NMDA | very low binding affinity | – |
| NC(Cc1ccccc1CCCP(=O)(O)O)C(=O)O (stereo not drawn) [2-amino-3-[2-(3-phosphonopropyl)phenyl]propanoic acid] | – | – | – | antagonists of NMDA | very low binding affinity | – |
| NC(Cc1ccccc1CP(=O)(O)O)C(=O)O (stereo not drawn) [2-amino-3-[2-phosphonomethylphenyl]propanoic acid] | – | – | – | antagonists of NMDA | very low binding affinity | – |
| NC(CCCc1ccccc1CP(=O)(O)O)C(=O)O (stereo not drawn) [2-amino-5-[2-phosphonomethylphenyl]pentanoic acid] | – | – | – | antagonists of NMDA | very low binding affinity | – |
| Cc1ccc(CCCC(=O)O)c(C[C@H](N)C(=O)O)c1 [Example 26, 5-Methyl-2-(3'-carboxypropyl) phenylalanine] | 2400 | > 1000 | 13 µM and 13.3 µM | – | – | Ki [4]: 8.4 µM |
